In the test the test system is 2-AP-labeled miR-21-hp RNA (RNA, miRNA, 2-aminopurine at 15 (replaces A15)) GGGUUGACUGUUGAAUCUCAUGGCAACCC
The test is described as follows: 2-aminopurine fluorescence titration. The note with it: 137 mM NaCl, 3 mM KCl; apparent; PBS pH 7.4, 10% DMSO, RT, 2 μM RNA.

Regarding `OC(CNc1ccccc1)Cn1c2ccc(Br)cc2c2cc(Br)ccc21` (stereo not shown), the Kd came out at 3.2 ± 0.7 µM.

For the origin of these results see PMC6341489 (2016).
